Data on 2 compounds can be found in patent US9834549B2, “3,3-disubstituted-(8-aza-bicyclo[3.2.1]OCT-8-yl)-[5-(1H-pyrazol-4-yl)-thiophen-3-yl]-methanones as inhibitors of 11 (β)-HSD1” (The University Of Edinburgh, priority 2010, dated 2017).

The nature of data set [1]: Oral exposure and tissue distribution in rats. The data set is classed as in vivo, male Sprague Dawley rats. The following applies: rat, oral 10 mg/kg; for Cmax: male, Sprague Dawley, plasma, read-out: Plasma Cmax (maximum plasma concentration). Here is the method:
The circulating plasma levels and tissue distribution of certain compounds were determined following oral administration of compound (10 mg/kg) to male Sprague Dawley rats. Rats (n=3 per group) were culled at 1, 4 and 6 hours post dosing and trunk blood and tissues (liver, adipose and brain) excised. Blood samples at 30 minutes and 2 hours post dosing were taken by tail nick from the 4 hour and 6 hour rats respectively.
Compound was triple extracted from plasma (prepared from blood by a high speed centrifugation step) spiked with 1 μg of a standard compound using ethyl acetate. Extracts were dried under nitrogen and re-suspended in 60% methanol/40% ammonium acetate (5 mM).
A known weight of tissue was homogenized in 3 volumes Krebs buffer. Compound was triple extracted with ethyl acetate from the supernatant of a low speed spin spiked with 1 μg of a standard compound. Extracts were dried under nitrogen and re-suspended in 60% methanol/40% ammonium acetate (5 mM).
Samples from plasma and tissue were analyzed by TSQ Quantum Discovery Tandem Mass Spectrometer and Surveyor Liquid Chromatogram (Thermo, Hemel-Hempstead, UK). 10 μL of each sample was injected in a mobile phase consisting of 60%:40% methanol:5 mM ammonium acetate at a flow rate of 0.5 mL/minute. The column used was a BDS hypersil, C18, 50×2.1 mm with a 5 μm particle size.
Each compound was tuned with a spray voltage of 3000 V and a capillary temperature of 300° C. and values for tube lens, CID and product ions were determined.
The peak area for each compound and for the internal standard was determined and the concentration of compound per gram of tissue or mL of plasma was calculated by comparison of the peak area ratio to a standard curve.

The next data set addresses T1, human 11β-HSD2 (Homo sapiens, UniProt P80365).
T1 construct: CHO cells stably transfected with the full-length gene coding for human 11β-HSD2 were used; expressed in transfected cells; host or cells: CHO (stably transfected)
T1 sequence (P80365 1-405): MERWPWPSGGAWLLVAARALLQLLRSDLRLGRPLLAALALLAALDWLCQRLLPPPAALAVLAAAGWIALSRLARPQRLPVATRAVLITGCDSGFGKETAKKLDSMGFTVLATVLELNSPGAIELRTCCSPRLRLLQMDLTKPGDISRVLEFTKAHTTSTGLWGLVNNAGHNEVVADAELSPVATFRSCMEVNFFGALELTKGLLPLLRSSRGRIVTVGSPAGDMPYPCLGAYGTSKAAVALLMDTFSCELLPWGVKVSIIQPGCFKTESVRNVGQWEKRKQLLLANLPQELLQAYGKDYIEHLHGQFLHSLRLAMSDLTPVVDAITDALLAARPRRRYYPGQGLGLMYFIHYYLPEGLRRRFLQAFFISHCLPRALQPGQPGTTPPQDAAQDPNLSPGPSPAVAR
As to the kind of experiment: Cellular in vitro 11β-HSD2 enzyme inhibition assay (CHO cells). The data set is classed as cell-based. The note with it: CHO cells transfected with human 11β-HSD2. On the procedure: For measurement of inhibition of 11β-HSD2, CHO cells stably transfected with the full-length gene coding for human 11β-HSD2 were used. Assays were carried out in 96-well microplates containing 1×10^5 cells/well. Controls and compounds were plated as above, so that the final DMSO concentration in each well was 1%. To initiate the assay, 90 μL of a solution of HAMS F-12 medium containing 1% glutamine, 1% penicillin and streptomycin, and 22 nM tritiated cortisol was added to each well of the assay plate. The plate was then incubated in 5% CO2, 95% O2 at 37° C. for 16 hours.
The assay solutions were transferred to glass tubes and […] added to each tube. Each tube was vortexed thoroughly and the upper layer containing the tritiated steroid transferred to a fresh glass tube. The solvent was evaporated by placing the tubes in a heating block at 65° C. under a stream of nitrogen gas. 20 μL ethanol was added to each of the dried samples and vortexed briefly. Each sample was applied to a silica TLC plate and the plate dried. The plate was placed vertically in a glass tank containing 92% chloroform: 8% ethanol and the solvent allowed to rise up the plate. The plate was dried, placed in an imaging cassette, and overlayed with a tritium imaging plate for 1-2 days. The amount of enzyme inhibition in each sample was determined by measuring the intensity of the substrate and product spots using a phospho-imager. IC50 values for inhibitors were determined as described above for 11β-HSD1.

A further data set is described as follows: Pharmacokinetics in rat. The data set is classed as in vivo, male Sprague Dawley rats. The following applies: male, Sprague Dawley, intravenous 1 mg/kg and oral 5 mg/kg; for bioavailability: blood, read-out: % F (% bioavailability); for clearance: plasma, read-out: Cl (plasma clearance). Here is the method:
The pharmacokinetic parameters of certain compounds were determined following intravenous (1 mg/kg) and oral (5 mg/kg) administration to male Sprague Dawley rats. Dosing solution was prepared by mixing each compound with 2% DMSO, 38% PEG-400 and 60% (0.9%) NaCl. Solutions were passed through 0.2 μm filters prior to administration.
Following dosing and at appropriate time points, blood samples were taken from a lateral tail vein and transferred into a tube pre-treated with EDTA. Blood samples were analysed for parent compound by LCMS and the quantity of parent compound remaining determined. Non-compartmental analysis was applied to the data using WinNonlin™ software to determine the pharmacokinetic parameters for each compound.

What is called IC50 is the concentration that gives 50% inhibition. Higher therefore signals weaker potency. One may read the bioavailability as the share of a dose that reaches the circulation, judged against a reference dose that is usually intravenous. Turning to `O=C(c1csc(-c2cn[nH]c2)c1)N1C2CCC1CC(O)(c1ncccn1)C2` (stereo not shown) [XX-20, (3-Hydroxy-3-pyrimidin-2-yl-8-aza-bicyclo[3.2.1]oct-8-yl)-[5-(1H-pyrazol-4-yl)-thiophen-3-yl]-methanone], in data set [1], the Cmax was above 1 µg/mL and the “Liver Cmax (maximum liver concentration)” value is “+++ (>5001 +++)”. The same compound had an IC50 on human 11β-HSD2 above 10 µM. Further, in “Pharmacokinetics in rat”, the bioavailability lay within 41 to 100% and the clearance was below 1.5 L/h/kg.
As for `O=C(c1csc(-c2cn[nH]c2)c1)N1C2CCC1CC(O)(c1nccs1)C2` (stereo not shown) [XX-29], in data set [1], the Cmax is 0.501 to 1 µg/mL and the “Liver Cmax (maximum liver concentration)” value is “++ (3001-5000 ++)”. The IC50 at human 11β-HSD2 is above 10 µM. For the same compound, in the data set “Pharmacokinetics in rat”, the bioavailability is 41 to 100% and the clearance was below 1.5 L/h/kg.
